Common to all, as to type: in vitro ADME
A short description of data set [1]: Metabolic stability in hepatocytes, CD-1 mice. The note with it: CD-1 mice hepatocytes. How it is done: Purpose of the assay: Metabolic stabilities of assay compounds in hepatocytes of CD-1 mice, SD rats, beagle dogs, cynomolgus monkeys, and human were assayed, respectively.
Procedure of the assay: Several 96-well sample precipitation plates were prepared and named T0, T15, T30, T60, T90, T120, TO-MC, T120-MC and blank substrates, respectively. The recovery medium and incubation medium were taken out in advance and placed in a 37° C. water bath for pre-heating. Cryopreserved hepatocytes were removed from the liquid nitrogen tank and immediately immersed in a 37° C. water bath (approximately 90 seconds). After the cryopreserved hepatocytes had thawed and loosened, they were poured into a centrifuge tube containing 40 mL of recovery medium, and the tube was gently inverted to allow the cells to be resuspended in the recovery medium. The cells were centrifuged at 100×g at room temperature for 5 min, and the supernatant was removed. The hepatocytes were resuspended in an appropriate volume of incubation medium, and the cell viability was calculated by Trypan Blue staining method. 198 μL of hepatocyte suspension (0.51×10^6 cells/mL) was added to the preheated incubation plate. For the culture medium control group, 198 μL of hepatocyte-free incubation medium was added to T0-MC and T120-MC incubation plate. All incubation plates were pre-incubated in a 37° C. incubator for 10 minutes. Then 2 μL of working solutions of the assay sample and the control compound were added, respectively, and the mixture was mixed well. The incubation plate was immediately put into the shaker in the incubator, and the reaction was initiated while starting the timer. For each time point of each compound, 2 duplicate samples were prepared. The incubation conditions were 37° C., saturated humidity, and 5% CO2. In the assay system, the final concentration of the assay sample was 1 μM, the final concentration of the control sample was 3 μM, the final concentration of hepatocytes was 0.5×10^6 cells/mL, and the final concentration of the total organic solvent was 0.96%, of which the final concentration of DMSO was 0.1%. At the end of the incubation for the corresponding time point, the incubation plate was taken out, and 25 μL of a mixture of compound and control compound with cells was added to the sample plate containing 125 μL of stop solution (200 ng/mL tolbutamide and labetalol in acetonitrile). For the Blank sample plate, 25 μL of hepatocyte-free incubation medium was added directly. After sealing, all sample plates were shaken on a shaker at 600 rpm for 10 minutes, and then centrifuged at 3220×g for 20 minutes. Supernatants of the assay sample and the control sample were diluted with ultrapure water at a ratio of 1:3. All samples were mixed well and analyzed by LC/MS/MS.

Data set [2] can be described thus: In vitro stability in liver microsomes, beagle dogs. Conditions: 0.5 mg/mL. How it is done:
Purpose of the assay: Metabolic stabilities of the assay compounds in liver microsomes of CD-1 mice, SD rats, beagle dogs, cynomolgus monkeys, and human were assayed, respectively.
Procedure of the assay: Two 96-well incubation plates were prepared and named T60 incubation plate and NCF60 incubation plate, respectively. 445 μL of microsomal working solutions (liver microsomal protein concentration of 0.56 mg/mL) were added to the T60 incubation plate and the NCF60 incubation plate, respectively, and then the above incubation plates were pre-incubated in a 37° C. water bath for about 10 minutes.
After the pre-incubation, 5 μL of working solutions of the assay sample or the control compound were added to the T60 incubation plate and the NCF60 incubation plate, respectively, and the mixture was mixed well. 50 μL of potassium phosphate buffer was added to each well of the NCF60 incubation plate to initiate the reaction. 180 μL of stop solution (200 ng/mL tolbutamide and 200 ng/mL labetalol in acetonitrile) and 6 uL of NADPH regeneration system working solution were added to the T0 stop plate, and 54 μL of sample was transferred from T60 incubation plate to T0 stop plate (generation of TO sample). The reaction was initiated by adding 44 μL of NADPH regeneration system working solution to each well of the T60 incubation plate. Only 54 μL of microsome working solution, 6 uL of NADPH regeneration system working solution and 180 μL of stop solution were added to the Blank plate. Therefore, in samples of the assay compound or the control compound, the final reaction concentration of compound, testosterone, diclofenac and propafenone was 1 μM, the concentration of liver microsomes was 0.5 mg/mL, and the final reaction concentrations of DMSO and acetonitrile in the reaction system were 0.01% (v/v) and 0.99% (v/v), respectively.
After an appropriate time (e.g., 5, 15, 30, 45 and 60 minutes) of incubation, 180 μL of stop solutions (200 ng/mL tolbutamide and 200 ng/mL labetalol in acetonitrile) were added to the sample wells of each stop plate, respectively. 60 μL of sample was removed from the T60 incubation plate to stop the reaction. All sample plates were shaken well and then centrifuged at 3220×g for 20 minutes. Then 80 μL of supernatant was taken out from each well, and diluted in 240 μL of pure water for liquid chromatography-tandem mass spectrometry analysis. All samples were injected and analyzed by liquid chromatography-tandem mass spectrometry.

The nature of data set [3]: Stability assay in whole blood, cynomolgus monkeys. The note with it: 5 μM, 37° C. How it is done: Purpose of the assay: Stabilities of the assay compounds in whole blood of CD-1 mice, SD rats, Beagle dogs and cynomolgus monkeys were assayed, respectively.
Procedure of the assay: On the day of the assay or the day before the assay, fresh whole blood from CD-1 mice, SD rats, beagle dogs, and cynomolgus monkeys was collected using anticoagulant EDTA-K2. Prior to the start of the assay, the whole blood was mixed with PBS in 1:1 (v:v) and the mixture was preheated in a 37° C. water bath for 10-20 minutes. […] […] All samples were incubated in a 37° C. water bath. The final incubation concentration of the compound was 5 μM and the final incubation concentration of the control compound was 2 μM. At the end of incubation for each time point, the corresponding incubation plate was removed and 100 μL of ultrapure water was immediately added to the corresponding sample wells, and mixed well. 800 μL of a solution of 200 ng/mL tolbutamide and labetalol in acetonitrile was added to precipitate the protein. The sample plates were sealed and shaken well, and then centrifuged at 3220×g for 20 min. 150 μL of supernatant was taken out and analyzed by LC/MS/MS.

The subject of data set [4] is plasma protein of cynomolgus monkeys. Kind of data set: Protein binding rate by equilibrium dialysis, cynomolgus monkeys plasma. The note with it: 2 μM, dialysis 4 hours. How it is done:
Purpose of the assay: Protein binding rate of the assay compounds in plasma of CD-1 mice, SD rats, beagle dogs, cynomolgus monkeys and human was determined by equilibrium dialysis.
Procedure of the assay: Plasma samples with a compound concentration of 2 μM were prepared using plasma of the above five species, placed in a 96-well equilibrium dialysis device, and dialyzed with phosphate buffer solution at 37±1° C. for 4 hours. Warfarin was used as the control compound in this assay. The concentrations of the assay compounds in plasma and dialysis buffer were determined by LC-MS/MS method.

`C=C(F)C(=O)N1CCN(c2nc(OCC3CCCN3C)nc3c2COC(c2c(F)c(N)cc(C)c2C(F)(F)F)C3)CC1CC#N.Cl` (single isomer, unassigned) [Compound 8B hydrochloride]: in data set [1] (1 μM), the “CLint(hep)” value is listed as 76.3 μL/min/10^6, the “CLint(liver)” value came to 906.0 mL/min/kg and the T1/2 came out at 18.2 min. Besides, in data set [2] (1 μM), the “CLint(liver)” value is reported as less than 13.8 mL/min/kg, the CLint(mic) is less than 9.6 µL/min/mg and the T1/2 is greater than 145 min. Besides, the “Detection of assay compound content within 120 min” value in data set [3] is recorded as 58%. Besides, the Protein unbound rate in data set [4] is 23.9.
With `C=C(F)C(=O)N1CCN(c2nc(OC[C@@]34CCCN3C[C@H](F)C4)nc3c2COC(c2c(F)c(N)cc(C)c2C(F)(F)F)C3)C[C@@H]1CC#N` (stereo partly shown) [Compound 17], the “CLint(hep)” value in data set [1] (1 μM) is given as 146.3 μL/min/10^6. The half-life at 1 μM in data set [1] (mouse, cryopreserved hepatocytes) is 9.5 min; in data set [2] (dog), greater than 145 min. For the same molecule, the CLint scaled at 1 μM in data set [1] (mouse, cryopreserved hepatocytes, read-out: CLint(liver)) is 1740 mL/min/kg; in data set [2] (dog), less than 13.8 mL/min/kg. In data set [2] (1 μM), this molecule came in with a CLint(mic) of less than 9.6 µL/min/mg. In data set [3], the “Detection of assay compound content within 120 min” value came to 77%. In data set [4], this molecule showed a Protein unbound rate of 7.8.

(Values after US12012404B2, “Pyrimidoheterocyclic compounds and application thereof” (D3 BIO (WUXI) CO., LTD., priority 2020, dated 2024).)
